Results on one compound are retold here after paper PMC6971011, “Conformational changes in Apolipoprotein N-acyltransferase (Lnt)” (Scientific Reports, 2020).

For the assay, the target named is T1, Apolipoprotein N-acyltransferase (Lnt); Lnt-C1, Lnt-C2 (Escherichia coli, UniProt P23930).
T1 construct: full length; C1: fifteen-residue C-terminal tail with His8-tag kept; C2: N-terminal His6-tag TEV-cleaved, two extra N-terminal residues; expressed in E. coli C41, detergent-purified
Description: X-ray crystallography ([…] Å) and LC-MS/MS of tryptic peptide. The format is binding. The following applies: covalent; thioester on active site C387 (acyl-enzyme intermediate, co-purified from expression host); Lnt-C1 chain B; vapor diffusion, pH 6.4.

Consider `CCCCCCCCCCCCCCCC(=O)O` [palmitate], for which the “X-ray crystallography (3.5 Å) and LC-MS/MS of tryptic peptide” value was “mass spectrometry analysis (Fig. 3D) on purified Lnt that identified a palmitoyl modification at position C387”.
